Reference: US6355799B1, “Substituted benzene compounds, process for their preparation, and herbicidal and defoliant compositions containing them” (ISK Americas Incorporated, priority 1997, dated 2002)

Experiments:
Type in all cases: in vivo
[1] = tested on: ivyleaf morningglory (Ipomoea hederacea, IPOHE); test: Pre-emerge test, greenhouse herbicide activity screening; conditions: pre-emerge, 14 days after application, rating scale 0-100
In short: (§1)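 Herbicidal damage is scored 0 (none) to 100 (complete plant death) two weeks after a simulated field spray. Rates span 15–1000 g ai/ha, delivered in acetone at 187 l/ha. For post-emergence treatments, plants have 2–3 leaves and the spray carries 0.25% v/v non-ionic surfactant.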

[2] = tested on: green foxtail (Setaria viridis, SETVI); test: as above; conditions: pre-emerge, 14 days after application, rating scale 0-100
In short: as §1

[3] = tested on: common ragweed (Ambrosia artemisizfolia L., AMBEL); test: as above; conditions: pre-emerge, 14 days after application, rating scale 0-100
In short: as §1

[4] = tested on: barnyardgrass (Echinochloa crus-galli, ECHCG); test: as above; conditions: pre-emerge, 14 days after application, rating scale 0-100
In short: as §1

[5] = tested on: velvetleaf (Abutilon theophrasti, ABUTH); test: as above; conditions: pre-emerge, 14 days after application, rating scale 0-100
In short: as §1

[6] = tested on: lambsquarters (Chenopodium album, CHEAL); test: as above; conditions: pre-emerge, 14 days after application, rating scale 0-100
In short: as §1

[7] = tested on: large crabgrass (Digitaria sanguinalis, DIGSA); test: as above; conditions: pre-emerge, 14 days after application, rating scale 0-100
In short: as §1

[8] = tested on: johnsongrass (Sorghum halepense, SORHA); test: as above; conditions: pre-emerge, 14 days after application, rating scale 0-100
In short: as §1

[9] = tested on: sicklepod (Cassia obtusifolia, CASOB); test: as above; conditions: pre-emerge, 14 days after application, rating scale 0-100
In short: as §1

[10] = tested on: ivyleaf morningglory (Ipomoea hederacea, IPOHE); test: Post-emerge test, greenhouse herbicide activity screening; conditions: post-emerge, 14 days after application, rating scale 0-100
In short: (§2)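 Compounds in acetone were track-sprayed at 15-1000 g ai/ha (187 l/ha) on sandy loam pots: pre-emerge one day after seeding, post-emerge at 2-3 leaf stage with 0.25% v/v non-ionic surfactant. Phytotoxicity was rated 14 days later on a 0 (no damage) to 100 (complete death) scale.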

[11] = tested on: green foxtail (Setaria viridis, SETVI); test: as above; conditions: post-emerge, 14 days after application, rating scale 0-100
In short: as §2

[12] = tested on: barnyardgrass (Echinochloa crus-galli, ECHCG); test: as above; conditions: post-emerge, 14 days after application, rating scale 0-100
In short: as §2

[13] = tested on: velvetleaf (Abutilon theophrasti, ABUTH); test: as above; conditions: post-emerge, 14 days after application, rating scale 0-100
In short: as §2

[14] = tested on: redroot pigweed (Amaranthus retroflexus, AMARE); test: as above; conditions: post-emerge, 14 days after application
In short: as §2

[15] = tested on: lambsquarters (Chenopodium album, CHEAL); test: as above; conditions: post-emerge, 14 days after application, rating scale 0-100
In short: as §2

[16] = tested on: large crabgrass (Digitaria sanguinalis, DIGSA); test: as above; conditions: post-emerge, 14 days after application, rating scale 0-100
In short: as §2

[17] = tested on: johnsongrass (Sorghum halepense, SORHA); test: as above; conditions: post-emerge, 14 days after application, rating scale 0-100
In short: as §2

[18] = tested on: sicklepod (Cassia obtusifolia, CASOB); test: as above; conditions: post-emerge, 14 days after application, rating scale 0-100
In short: as §2

[19] = tested on: field corn (Zea mays L., var. Dekalb 535, CORN); test: Pre-emerge test, crop safety; conditions: pre-emerge, 14 days after application, rating scale 0-100
In short: (§3)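 Sandy loam pots; pre-emerge: sown 1 d pre-spray, surface-watered after, then bottom-watered. Post-emerge: sown 8–21 d before, 2–3 leaf stage, + 0.25% v/v NIS, bottom-watered. Acetone, 187 l/ha track spray, 15–1000 g ai/ha. 0–100 injury score, day 14.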

[20] = tested on: upland rice (Oryza sp., var. Tebonnet, RICE); test: Pre-emerge test, crop safety; conditions: pre-emerge, 14 days after application, rating scale 0-100
In short: as §3

[21] = tested on: redroot pigweed (Amaranthus retroflexus, AMARE); test: Pre-emerge test, greenhouse herbicide activity screening; conditions: pre-emerge, 14 days after application, rating scale 0-100
In short: as §3

[22] = tested on: field corn (Zea mays L., var. Dekalb 535, CORN); test: Post-emerge test, crop safety; conditions: post-emerge, 14 days after application, rating scale 0-100
In short: as §1

[23] = tested on: upland rice (Oryza sp., var. Tebonnet, RICE); test: Post-emerge test, crop safety; conditions: post-emerge, 14 days after application, rating scale 0-100
In short: as §1

Q: Which results are given for `CCCOC(=O)C(Cl)Cc1c(OCC)c(Cl)cc(F)c1-n1c(=O)cc(C(F)(F)F)n(C)c1=O` (stereo not shown) [14-66]?
A: phytotoxicity rating IPOHE ([1]; 63 g ai/ha): 0; phytotoxicity rating IPOHE ([1]; 250 g ai/ha): 60; phytotoxicity rating SETVI ([2]; 63 g ai/ha): 20; phytotoxicity rating SETVI ([2]; 250 g ai/ha): 100; phytotoxicity rating AMBEL ([3]; 63 g ai/ha): 0; phytotoxicity rating AMBEL ([3]; 250 g ai/ha): 0; phytotoxicity rating ECHCG ([4]; 63 g ai/ha): 50; phytotoxicity rating ECHCG ([4]; 250 g ai/ha): 100; phytotoxicity rating ABUTH ([5]; 63 g ai/ha): 90; phytotoxicity rating ABUTH ([5]; 250 g ai/ha): 100; phytotoxicity rating CHEAL ([6]; 63 g ai/ha): 90; phytotoxicity rating CHEAL ([6]; 250 g ai/ha): 100; phytotoxicity rating DIGSA ([7]; 63 g ai/ha): 90; phytotoxicity rating DIGSA ([7]; 250 g ai/ha): 100; phytotoxicity rating SORHA ([8]; 63 g ai/ha): 0; phytotoxicity rating SORHA ([8]; 250 g ai/ha): 30; phytotoxicity rating CASOB ([9]; 63 g ai/ha): 0; phytotoxicity rating CASOB ([9]; 250 g ai/ha): 0; Post-emerge Herbicidal Activity IPOHE (phytotoxicity rating) ([10]; 63 g ai/ha): 70; Post-emerge Herbicidal Activity IPOHE (phytotoxicity rating) ([10]; 250 g ai/ha): 90; Post-emerge Herbicidal Activity SETVI (phytotoxicity rating) ([11]; 63 g ai/ha): 95; Post-emerge Herbicidal Activity SETVI (phytotoxicity rating) ([11]; 250 g ai/ha): 100; Post-emerge Herbicidal Activity ECHCG (phytotoxicity rating) ([12]; 63 g ai/ha): 100; Post-emerge Herbicidal Activity ECHCG (phytotoxicity rating) ([12]; 250 g ai/ha): 100; Post-emerge Herbicidal Activity ABUTH (phytotoxicity rating) ([13]; 63 g ai/ha): 100; Post-emerge Herbicidal Activity ABUTH (phytotoxicity rating) ([13]; 250 g ai/ha): 100; Post-emerge Herbicidal Activity AMARE (phytotoxicity rating) ([14]; 63 g ai/ha, rating scale 0-100 (0 no damage, 100 complete death)): 95; Post-emerge Herbicidal Activity AMARE (phytotoxicity rating) ([14]; 250 g ai/ha, rating scale 0-100): 100; Post-emerge Herbicidal Activity CHEAL (phytotoxicity rating) ([15]; 63 g ai/ha): 80; Post-emerge Herbicidal Activity CHEAL (phytotoxicity rating) ([15]; 250 g ai/ha): 99; Post-emerge Herbicidal Activity DIGSA (phytotoxicity rating) ([16]; 63 g ai/ha): 100; Post-emerge Herbicidal Activity DIGSA (phytotoxicity rating) ([16]; 250 g ai/ha): 100; Post-emerge Herbicidal Activity SORHA (phytotoxicity rating) ([17]; 63 g ai/ha): 60; Post-emerge Herbicidal Activity SORHA (phytotoxicity rating) ([17]; 250 g ai/ha): 80; Post-emerge Herbicidal Activity CASOB (phytotoxicity rating) ([18]; 63 g ai/ha): 80; Post-emerge Herbicidal Activity CASOB (phytotoxicity rating) ([18]; 250 g ai/ha): 90; phytotoxicity rating CORN ([19]; 63 g ai/ha): 0; phytotoxicity rating CORN ([19]; 250 g ai/ha): 0; phytotoxicity rating RICE ([20]; 63 g ai/ha): 0; phytotoxicity rating RICE ([20]; 250 g ai/ha): 20; phytotoxicity rating AMARE ([21]; 63 g ai/ha): 100; phytotoxicity rating AMARE ([21]; 250 g ai/ha): 100; Post-emerge Herbicidal Activity CORN (crop damage rating) ([22]; 63 g ai/ha): 90; Post-emerge Herbicidal Activity CORN (crop damage rating) ([22]; 250 g ai/ha): 100; Post-emerge Herbicidal Activity RICE (crop damage rating) ([23]; 63 g ai/ha): 0; Post-emerge Herbicidal Activity RICE (crop damage rating) ([23]; 250 g ai/ha): 10
